Data published in patent US20230278972A1, “SUBSTITUTED HALOALKYL SULFONANILIDE HERBICIDES” (FMC Corporation, priority 2020, published 2023).

Columns and labels:
Assay type in all cases: in vivo
corn (Zea mays) [1] = test: Test A1 postemergence, corn; conditions: Postemergence
Outline: (§1)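 Test compounds were formulated in a non-phytotoxic solvent mixture containing a surfactant. For preemergence, seeds sown in a loam soil–sand blend received a directed soil spray. For postemergence, potted plants in the same soil, 2 to 10 cm tall at the one- to two-leaf stage, were sprayed.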

soybean (Glycine max) [2] = test: Test A1 postemergence, soybean; conditions: for Plant response rating, Soybean: Postemergence
Outline: (§2)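 Herbicidal response was scored on plants treated either preemergence, by directed spray onto soil of a loam–sand blend after sowing, or postemergence on potted plants at the one- to two-leaf stage, 2–10 cm high. Test chemicals were carried in a non-phytotoxic solvent mix with surfactant.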

[3] = test system: Oat, Wild (wild oat, Avena fatua); test: Test A1 preemergence, Oat, Wild
Outline: as §1

[4] = test system: horseweed (Erigeron canadensis); test: Test A1 postemergence, horseweed; conditions: Postemergence
Outline: as §2

[5] = test system: wheat (Triticum aestivum); test: Test A1 postemergence, wheat; conditions: for Plant response rating, Wheat: Postemergence
Outline: as §2

corn (Zea mays) [6] = test: Test A1 preemergence, corn
Outline: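 Plants were grown in a loam soil/sand blend, with test chemicals formulated in a non-phytotoxic solvent mixture containing surfactant. Preemergence treatment (corn) was a directed soil spray at planting. Postemergence treatment was applied to plants 2 to 10 cm tall at the one- to two-leaf stage.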

soybean (Glycine max) [7] = test: Test A1 preemergence, soybean
Outline: as §1

[8] = test system: wheat (Triticum aestivum); test: Test A1 preemergence, wheat
Outline: as §1

[9] = test system: ducksalad (Heteranthera limosa); test: Test B1 flooded paddy test, ducksalad; conditions: 250 g ai/ha, Flood, applied to paddy water, 2-leaf stage, visually evaluated after 10 to 14 days
From the text: A dash (-) response means no test result.

[10] = 31 g ai/ha, 0 to 100 scale (0 no effect, 100 complete control), 10 days
[11] = 31 g ai/ha, 0 to 100 scale (0 no effect, 100 complete control)
[12] = 125 g ai/ha, 0 to 100 scale, 0 no effect, 100 complete control
[13] = 31 g ai/ha, postemergence, 0 to 100 scale (0 no effect, 100 complete control)

Structure (SMILES)	Plant response rating, Corn (corn (Zea mays) [1]; [10])	Plant response rating, Corn (corn (Zea mays) [1]; 125 g ai/ha, 0 to 100 scale)	Plant response rating, Soybean (soybean (Glycine max) [2]; [10])	Plant response rating, Soybean (soybean (Glycine max) [2]; 125 g ai/ha, 0 to 100 scale)	Plant response rating, Oat, Wild [3, 11]	Plant response rating, Oat, Wild [3, 12]	Plant response rating, Horseweed [4, 10]	Plant response rating, Horseweed ([4]; 125 g ai/ha, 0 to 100 scale)	Plant response rating, Wheat [5, 10]	Plant response rating, Wheat ([5]; 125 g ai/ha, 0 to 100 scale)	Plant response rating, Corn (corn (Zea mays) [6]; [11])	Plant response rating, Corn (corn (Zea mays) [6]; [12])	Plant response rating, Soybean (soybean (Glycine max) [7]; [11])	Plant response rating, Soybean (soybean (Glycine max) [7]; [12])	Plant response rating, Wheat [8, 11]	Plant response rating, Wheat [8, 12]	Plant response rating, Ducksalad (0 to 100 scale, 0 is no effect, 100 is complete control) [9]	Soybean plant response rating (soybean (Glycine max) [2]; [13])	Wheat plant response rating [5, 13]
Cc1cc(C)c(N(COC(=O)C(C)(C)C)S(=O)(=O)C(F)(F)F)cc1C(=O)N1CCC(C)CC1 [Compound 353]	0	0	50	60	0	0	70	100	20	50	10	30	10	30	0	0	65	–	–
CCC1CC(c2cc(NS(=O)(=O)C(F)(F)F)c(C)cc2C)=NO1 (stereo not drawn) [Compound 375]	0	0	–	60	0	20	–	50	–	70	0	70	0	30	0	100	60	30	0
Cc1cc(C)c(N(COC(=O)C(C)(C)C)S(=O)(=O)C(F)(F)F)cc1C1=NOC2CCCCCC12 (single isomer, unassigned) [Compound 294]	10	20	0	50	0	20	10	90	0	20	0	0	0	0	0	0	70	–	–
Cc1c(C(=O)N2CCC(F)CC2)cc(N(COC(=O)C(C)(C)C)S(=O)(=O)C(F)(F)F)c(C)c1C [Compound 361]	0	40	50	70	0	0	70	90	0	20	0	0	0	20	0	0	65	–	–
Cc1c(NS(=O)(=O)C(F)(F)F)cc(C(=O)N2CCOCC2)c(C)c1C [Compound 289, 1,1,1-Trifluoro-N-[2,3,4-trimethyl-5-(4-morpholinylcarbonyl)phenyl]methanesulfonamide]	0	20	40	50	20	50	80	90	20	50	0	30	20	60	30	80	95	–	–
CCCCOC1CC(c2cc(NS(=O)(=O)C(F)(F)F)c(C)cc2C)=NO1 (stereo not drawn) [Compound 323]	0	0	0	30	20	30	0	50	0	50	0	10	0	0	0	50	0	–	–
Cc1cc(C)c(N(C(=O)OCC(C)C)S(=O)(=O)C(F)(F)F)cc1C1=NOC2CCCC12 (stereo not drawn) [Compound 299]	0	0	40	50	0	20	0	30	30	70	0	0	0	0	0	70	55	–	–
Cc1cc(C2CC2)c(C2=NOC3CCCC23)cc1N(COC(=O)C(C)(C)C)S(=O)(=O)C(F)(F)F (stereo not drawn) [Compound 355]	0	20	10	40	0	0	70	70	20	50	0	0	20	30	10	10	45	–	–
Cc1cc(C)c(N(S(=O)(=O)C(F)(F)F)S(=O)(=O)C(F)(F)F)cc1C1=NOC2COCC12 (stereo not drawn) [Compound 296]	0	0	30	40	0	10	70	80	0	30	0	70	20	30	10	90	20	–	–
CCOC(=O)N(c1cc(C(=O)N2CCOCC2)c(C)cc1C)S(=O)(=O)C(F)(F)F [Compound 363]	30	60	60	60	30	70	80	90	40	60	0	60	10	30	40	90	70	–	–
Cc1cc(F)c(NS(=O)(=O)C(F)(F)F)cc1C1=NOC2(CCCC2)C1 [Compound 303]	0	40	30	50	20	60	0	70	0	50	0	90	0	0	30	90	0	–	–
Cc1c(C(=O)N2CCOCC2)cc(NS(=O)(=O)C(F)(F)F)c(Cl)c1F [Compound 321]	10	20	20	40	0	50	70	80	0	10	0	30	60	60	0	80	95	–	–
Cc1c(C(=O)N2C[C@@H](C)O[C@@H](C)C2)cc(N(COC(=O)C(C)(C)C)S(=O)(=O)C(F)(F)F)c(C)c1C [Compound 331]	10	50	60	70	0	0	70	80	0	50	0	0	0	10	0	0	80	–	–
Cc1cc(C)c(N(COC(=O)OC(C)C)S(=O)(=O)C(F)(F)F)cc1C1=NOC2CCCC12 (stereo not drawn) [Compound 314]	0	30	40	50	0	0	0	50	50	70	10	40	20	40	0	50	90	–	–
